In US20160095837A1, “MODULATION OF MITOCHONDRIAL CALCIUM UNIPORTER ACTIVITY FOR TREATING AND PREVENTING ARRHYTHMIAS” (priority 2014, published 2016):

How the values were obtained:
[1] = system: Ca2+ uptake into mitochondria; conditions: in vitro; read-out: IC50, block of Ca2+ uptake into mitochondria in vitro; cited from earlier work
[2] = system: SERCA2a activity ([Ca2+]cyto decline); experiment: Cytoplasmic Ca2+ transient decay (Fura-2 AM) in SAN cells; type: cell-based, mouse; conditions: Ru360 dialysis
Protocol: (§1) SAN cells were placed in Tyrode's solution at 36±0.5° C. and were identified by their characteristic morphology (spindle or spider shape) and spontaneous activity. SAN cells were identified electrophysiologically by spontaneous action potentials with a slow depolarizing phase 4 and the hyperpolarization-activated current (If).^27 Spontaneous action potentials, If and ICa were recorded using the perforated (amphotericin B or β-escin in studies requiring dialysis of Ru360 and/or ATP) patch-clamp technique^28 on single SAN cells at 36±0.5° C. in Tyrode's solution. Intracellular Ca^2+ transients were recorded from single SAN cells using Fura-2 AM excited at 340 nm and 380 nm and emitted and 510 nm. Endogenous NADH from single SAN cells was measured by excitation at 350 nm and recording emitted light at 460 nm.^29 Mitochondrial Ca^2+ was measured at 535 nm from mt-pericam expressing SAN cells exited at 415 nm^20. Mitochondrial Ca^2+ entry was measured in cell membrane permeabilized cardiomyocytes isolated from DN-MCU transgenic, wild type mice and from HEK293 cells using Calcium green-5N^30.
Cytosolic Ca^2+ levels were recorded from Fura-2-loaded cells, excited at wavelengths of 340 and 380 nm, and imaged with a 510 nm long-pass filter. Single isolated SAN cells were loaded with 0.1 μM Fura-2 AM for 20 minutes, and then perfused for 20 minutes to de-esterfy the Fura-2 AM in normal Tyrode's solution. After placement on a recording chamber, the cells were perfused in normal Tyrode's solution at 36° C.±0.5. Spindle-shaped, spontaneously beating cells were chosen for experiments. Action potential recording was performed simultaneously.

[3] = system: CaV1 L-type Ca2+ current (ICa); experiment: ICa current recording in SAN cells; type: cell-based, mouse; conditions: Ru360 dialysis
Protocol: as §1
Spontaneous action potentials (APs) and If were recorded using the perforated (amphotericin B or β-escin) patch-clamp technique^28 on single SAN cell at 36±0.5° C. in Tyrode's solution (0.5 mM BaCl2 was added to the bath solution when recording If^32). […]

NADH = NADH autofluorescence in SAN cells; type: cell-based, mouse; conditions: Ru360 dialysis
Protocol: as §1
The autofluorescence of endogenous NADH, which derives primarily from mitochondria,^29,35 was measured as described^29. NADH was excited at 350 nm (AT350/SOX, Chroma) and fluorescence was recorded at 460 nm (ET460/50m and T400LP, Chroma). […]

[4] = system: other cellular Ca2+ transport processes involved in cardiac muscle contraction; conditions: even at micromolar levels; cited from earlier work
[5] = target: T1, mitochondrial calcium uniporter (MCU) (Homo sapiens, UniProt Q8NE86); experiment: Calcium green mitochondrial Ca2+ uptake assay in permeabilized HEK cells; type: cell-based; conditions: Ru360 10 μM or DN-MCU adenovirus (FIG. 6)
T1 construct: We measured mitochondrial Ca^2+ uptake using permeabilized HEK cells; endogenous in cells; host or cells: HEK293 cells, saponin-permeabilized
T1 sequence (Q8NE86 51-351): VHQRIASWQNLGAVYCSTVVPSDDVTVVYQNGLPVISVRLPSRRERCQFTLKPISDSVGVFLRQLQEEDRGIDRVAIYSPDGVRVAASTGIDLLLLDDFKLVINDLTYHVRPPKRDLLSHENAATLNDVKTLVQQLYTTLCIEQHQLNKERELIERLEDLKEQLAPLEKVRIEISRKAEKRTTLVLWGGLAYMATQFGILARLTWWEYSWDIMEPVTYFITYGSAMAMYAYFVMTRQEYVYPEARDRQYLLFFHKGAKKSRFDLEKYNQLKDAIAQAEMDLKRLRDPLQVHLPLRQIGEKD
T1 sequence (Q9H4I9 48-107 partner limits assumed): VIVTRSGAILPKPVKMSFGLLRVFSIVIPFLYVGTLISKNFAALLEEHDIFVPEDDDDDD
Protocol: as §1
We measured mitochondrial Ca^2+ uptake using permeabilized HEK cells as previously described^30,40. […] Fluorescence was measured using a Tecan plate reader. […] Fluorescence intensity was measured from 50,000 […]/well. […]

## (μ)[(HCO2)(NH3)4Ru]2OCl3) [Ru360]
[1]
  IC50: 0.184 nM
[2]; ISO stimulated
  Decline in [Ca2+]cyto after ISO: slowed
[2]; no ISO
  Decline in [Ca2+]cyto in the absence of ISO stimulation: did not slow
[3]
  ISO-induced ICa increases: not impaired
NADH
  ISO-induced increase in NADH fluorescence: prevented
[4]
  Effect on other cellular Ca2+ transport processes involved in cardiac muscle contraction: does not affect
[5]
  Mitochondrial Ca2+ entry: similarly effective at preventing
